According to PubChem BioAssay (NCI):
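Method: 48-hour compound exposure of cells in 96-well plates, five concentrations, linear interpolation of endpoints. GI50 = concentration required for 50% inhibition of growth. Definition used: TGI = concentration required for complete inhibition of growth.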

Experiments:
Experiment in all cases: DTP human tumour cell line panel, 48 h
A498 renal = test system: A498 renal
A549 NSCLC = test system: A549 NSCLC
CAKI-1 renal = test system: CAKI-1 renal
CCRF-CEM leukemia = test system: CCRF-CEM leukemia
DU-145 prostate = test system: DU-145 prostate
EKVX NSCLC = test system: EKVX NSCLC
HCT-116 colon = test system: HCT-116 colon
HL-60(TB) leukemia = test system: HL-60(TB) leukemia
HOP-62 NSCLC = test system: HOP-62 NSCLC
HS 578T breast = test system: HS 578T breast
IGROV1 ovarian = test system: IGROV1 ovarian
MCF7 breast = test system: MCF7 breast
NCI-H460 lung = test system: NCI-H460 lung
NCI-H522 lung = test system: NCI-H522 lung
NCI/ADR-RES ovarian = test system: NCI/ADR-RES ovarian
OVCAR-4 ovarian = test system: OVCAR-4 ovarian
OVCAR-5 ovarian = test system: OVCAR-5 ovarian
PC-3 prostate = test system: PC-3 prostate
RPMI-8226 leukemia = test system: RPMI-8226 leukemia
RXF 393 renal = test system: RXF 393 renal
SF-268 CNS = test system: SF-268 CNS
SK-MEL-2 melanoma = test system: SK-MEL-2 melanoma
SN12C renal = test system: SN12C renal
SNB-19 CNS = test system: SNB-19 CNS
SNB-75 CNS = test system: SNB-75 CNS
SR leukemia = test system: SR leukemia
TK-10 renal = test system: TK-10 renal
UACC-62 melanoma = test system: UACC-62 melanoma
786-0 renal = test system: 786-0 renal
ACHN renal = test system: ACHN renal
BT-549 breast = test system: BT-549 breast
COLO 205 colon = test system: COLO 205 colon
HCC-2998 colon = test system: HCC-2998 colon
HCT-15 colon = test system: HCT-15 colon
HOP-92 NSCLC = test system: HOP-92 NSCLC
HT29 colon = test system: HT29 colon
K-562 leukemia = test system: K-562 leukemia
KM12 colon = test system: KM12 colon
LOX IMVI melanoma = test system: LOX IMVI melanoma
M14 melanoma = test system: M14 melanoma
MALME-3M melanoma = test system: MALME-3M melanoma
MDA-MB-231 breast = test system: MDA-MB-231 breast
MDA-MB-435 = test system: MDA-MB-435
MOLT-4 leukemia = test system: MOLT-4 leukemia
NCI-H226 lung = test system: NCI-H226 lung
NCI-H23 lung = test system: NCI-H23 lung
OVCAR-3 ovarian = test system: OVCAR-3 ovarian
OVCAR-8 ovarian = test system: OVCAR-8 ovarian
SF-295 CNS = test system: SF-295 CNS
SF-539 CNS = test system: SF-539 CNS
SK-MEL-5 melanoma = test system: SK-MEL-5 melanoma
SK-OV-3 ovarian = test system: SK-OV-3 ovarian
SW-620 colon = test system: SW-620 colon
U251 CNS = test system: U251 CNS
UACC-257 melanoma = test system: UACC-257 melanoma
UO-31 renal = test system: UO-31 renal

`C=C1CC2C3C=C(C)C4=CC(=O)CC[C@]4(C)C3CC[C@]2(C)[C@@]1(OC(C)=O)C(C)=O` (some centres not stated) was tested, and the GI50 (A498 renal) was > 100000 nM, the TGI (A498 renal) was > 100000 nM and the GI50 (A549 NSCLC) was 2630 nM. For the same compound, the TGI (A549 NSCLC) was > 100 µM, the GI50 (CAKI-1 renal) was 2960 nM and the TGI (CAKI-1 renal) was > 100 µM. The GI50 (CCRF-CEM leukemia) was 2110 nM, the TGI (CCRF-CEM leukemia) was > 100 µM and the GI50 (DU-145 prostate) was > 100000 nM. The TGI (DU-145 prostate) was > 100000 nM, the GI50 (EKVX NSCLC) was 2100 nM and the TGI (EKVX NSCLC) was > 100 µM. For the same compound, the GI50 (HCT-116 colon) was 3380 nM, the TGI (HCT-116 colon) was > 100 µM and the GI50 (HL-60(TB) leukemia) was 2550 nM. For the same compound, the TGI (HL-60(TB) leukemia) was 5530 nM, the GI50 (HOP-62 NSCLC) was 7.76 µM and the TGI (HOP-62 NSCLC) was > 100 µM. The GI50 (HS 578T breast) was 43.5 µM, the TGI (HS 578T breast) was > 100 µM and the GI50 (IGROV1 ovarian) was > 100000 nM. The TGI (IGROV1 ovarian) was > 100 µM, the GI50 (MCF7 breast) was 4160 nM and the TGI (MCF7 breast) was > 100 µM. The GI50 (NCI-H460 lung) was 3690 nM, the TGI (NCI-H460 lung) was > 100 µM and the GI50 (NCI-H522 lung) was 4.21 µM. The TGI (NCI-H522 lung) was > 100000 nM, the GI50 (NCI/ADR-RES ovarian) was 2430 nM and the TGI (NCI/ADR-RES ovarian) was > 100 µM. For the same compound, the GI50 (OVCAR-4 ovarian) was 2910 nM, the TGI (OVCAR-4 ovarian) was > 100 µM and the GI50 (OVCAR-5 ovarian) was > 100000 nM. The TGI (OVCAR-5 ovarian) was > 100 µM, the GI50 (PC-3 prostate) was 2550 nM and the TGI (PC-3 prostate) was > 100 µM. The GI50 (RPMI-8226 leukemia) was 1250 nM, the TGI (RPMI-8226 leukemia) was 5.6 µM and the GI50 (RXF 393 renal) was 4.31 µM. The TGI (RXF 393 renal) was > 100 µM, the GI50 (SF-268 CNS) was 5460 nM and the TGI (SF-268 CNS) was > 100 µM. For the same compound, the GI50 (SK-MEL-2 melanoma) was > 100000 nM, the TGI (SK-MEL-2 melanoma) was > 100 µM and the GI50 (SN12C renal) was 1160 nM. For the same compound, the TGI (SN12C renal) was > 100 µM, the GI50 (SNB-19 CNS) was > 100000 nM and the TGI (SNB-19 CNS) was > 100 µM. The GI50 (SNB-75 CNS) was 8.76 µM, the TGI (SNB-75 CNS) was > 100 µM and the GI50 (SR leukemia) was 3190 nM. The TGI (SR leukemia) was > 100 µM, the GI50 (TK-10 renal) was > 100 µM and the TGI (TK-10 renal) was > 100 µM. The GI50 (UACC-62 melanoma) was 3380 nM and the TGI (UACC-62 melanoma) was > 100 µM.

For `COc1ccc(-c2[nH]nc(N)c2-c2cc(OC)c(OC)c(OC)c2)cc1`, the GI50 (786-0 renal) was 66.3 nM, the TGI (786-0 renal) was > 58.3 µM and the GI50 (A498 renal) was 21 nM. The TGI (A498 renal) was 83.2 nM, the GI50 (A549 NSCLC) was 44.7 nM and the TGI (A549 NSCLC) was > 100 µM. The GI50 (ACHN renal) was 80.6 nM, the TGI (ACHN renal) was > 100 µM and the GI50 (BT-549 breast) was 87.3 nM. The TGI (BT-549 breast) was 4.29 µM, the GI50 (CAKI-1 renal) was 50.6 nM and the TGI (CAKI-1 renal) was 47.3 µM. The GI50 (CCRF-CEM leukemia) was 32.5 nM, the GI50 (COLO 205 colon) was 33.1 nM and the TGI (COLO 205 colon) was 160 nM. It also gave a GI50 (DU-145 prostate) of 35.4 nM, a TGI (DU-145 prostate) of 1760 nM and a GI50 (HCC-2998 colon) of 39.6 nM. The TGI (HCC-2998 colon) was 1400 nM, the GI50 (HCT-116 colon) was 41.7 nM and the TGI (HCT-116 colon) was 42.6 µM. The GI50 (HCT-15 colon) was 34.5 nM, the TGI (HCT-15 colon) was > 100 µM and the GI50 (HL-60(TB) leukemia) was 23.6 nM. The TGI (HL-60(TB) leukemia) was 62.2 nM, the GI50 (HOP-62 NSCLC) was 0.0442 µM and the TGI (HOP-62 NSCLC) was > 100 µM. The GI50 (HOP-92 NSCLC) was 148 nM, the TGI (HOP-92 NSCLC) was 19.7 µM and the GI50 (HS 578T breast) was 0.0352 µM. The TGI (HS 578T breast) was > 59 µM, the GI50 (HT29 colon) was 34.3 nM and the TGI (HT29 colon) was 18.2 µM. The GI50 (IGROV1 ovarian) was 59.1 nM, the TGI (IGROV1 ovarian) was 20.4 µM and the GI50 (K-562 leukemia) was 31.5 nM. The TGI (K-562 leukemia) was > 100 µM, the GI50 (KM12 colon) was 24.6 nM and the TGI (KM12 colon) was 9.79 µM. For the same compound, the GI50 (LOX IMVI melanoma) was 75.6 nM, the TGI (LOX IMVI melanoma) was > 100 µM and the GI50 (M14 melanoma) was 28.1 nM. The TGI (M14 melanoma) was 3.46 µM, the GI50 (MALME-3M melanoma) was 33.7 nM and the TGI (MALME-3M melanoma) was > 100 µM. For the same compound, the GI50 (MCF7 breast) was 30 nM, the TGI (MCF7 breast) was > 100 µM and the GI50 (MDA-MB-231 breast) was 74 nM. The TGI (MDA-MB-231 breast) was > 100 µM, the GI50 (MDA-MB-435) was 10.6 nM and the TGI (MDA-MB-435) was 44.6 nM. The GI50 (MOLT-4 leukemia) was 48.7 nM, the GI50 (NCI-H226 lung) was 512 nM and the TGI (NCI-H226 lung) was > 100 µM. The GI50 (NCI-H23 lung) was 42.2 nM, the TGI (NCI-H23 lung) was > 32.1 µM and the GI50 (NCI-H460 lung) was 36.3 nM. The TGI (NCI-H460 lung) was > 33.7 µM, the GI50 (NCI-H522 lung) was < 0.0133 µM and the TGI (NCI-H522 lung) was 620 nM. For the same compound, the GI50 (NCI/ADR-RES ovarian) was 28.3 nM, the GI50 (OVCAR-3 ovarian) was 26.1 nM and the TGI (OVCAR-3 ovarian) was 853 nM. The GI50 (OVCAR-4 ovarian) was 1620 nM, the TGI (OVCAR-4 ovarian) was > 100 µM and the GI50 (OVCAR-5 ovarian) was 65.9 nM. The TGI (OVCAR-5 ovarian) was > 100 µM, the GI50 (OVCAR-8 ovarian) was 45.9 nM and the TGI (OVCAR-8 ovarian) was > 100 µM. The GI50 (PC-3 prostate) was 36.7 nM, the TGI (PC-3 prostate) was > 100 µM and the GI50 (RPMI-8226 leukemia) was 35.2 nM. The TGI (RPMI-8226 leukemia) was 7.69 µM, the GI50 (SF-268 CNS) was 75.6 nM and the TGI (SF-268 CNS) was 33.3 µM. For the same compound, the GI50 (SF-295 CNS) was 24.8 nM, the TGI (SF-295 CNS) was > 100 µM and the GI50 (SF-539 CNS) was 24.6 nM. The TGI (SF-539 CNS) was 66.5 nM, the GI50 (SK-MEL-2 melanoma) was 37.9 nM and the TGI (SK-MEL-2 melanoma) was > 100 µM. The GI50 (SK-MEL-5 melanoma) was 38.1 nM, the TGI (SK-MEL-5 melanoma) was 725 nM and the GI50 (SK-OV-3 ovarian) was 41.7 nM. For the same compound, the TGI (SK-OV-3 ovarian) was 2200 nM, the GI50 (SN12C renal) was 71.6 nM and the TGI (SN12C renal) was > 57.4 µM. For the same compound, the GI50 (SNB-19 CNS) was 519 nM, the TGI (SNB-19 CNS) was > 100 µM and the GI50 (SR leukemia) was 28.5 nM. For the same compound, the TGI (SR leukemia) was > 42 µM, the GI50 (SW-620 colon) was 38.7 nM and the TGI (SW-620 colon) was > 100 µM. The GI50 (U251 CNS) was 42.4 nM, the TGI (U251 CNS) was > 100 µM and the GI50 (UACC-257 melanoma) was 8.03 µM. The TGI (UACC-257 melanoma) was > 100 µM, the GI50 (UACC-62 melanoma) was 67.2 nM and the TGI (UACC-62 melanoma) was > 100 µM. For the same compound, the GI50 (UO-31 renal) was 64.4 nM and the TGI (UO-31 renal) was 66.7 µM.
